In brackets after ≈: the same amount, converted by molar mass. Activity calls are given as the source filed them. No cut-off for these calls is given here.

Here are results for 13 molecules from ChEMBL document CHEMBL4346728, “Discovery and development of DNA polymerase IIIC inhibitors to treat Gram-positive infections” (Bioorg Med Chem, 2019).

Assay [1] deals with Enterococcus faecalis. The experiment in a line: Antibacterial activity against Enterococcus faecalis ATCC 29212 incubated for 16 to 24 hrs by microplate reader analysis. It counts as functional.
Assay [2] can be described thus: Inhibition of recombinant Bacillus subtilis DNA polymerase 3C expressed in Escherichia coli using activated calf thymus DNA as substrate after 10 mins in presence of dATP/dCTP/[3H]dTTP/dATP by liquid scintillation counting analysis.
The test system of assay [3] is Staphylococcus aureus. The assay can be described thus: Antibacterial activity against Staphylococcus aureus ATCC 25923 incubated for 16 to 24 hrs by microplate reader analysis. It counts as functional.
Assay [4] concerns Escherichia coli. The assay can be described thus: Antibacterial activity against Escherichia coli J53 incubated for 16 to 24 hrs by microplate reader analysis. It counts as functional.
For assay [5], the system named is Staphylococcus aureus. The assay can be described thus: Antibacterial activity against methicillin-resistant Staphylococcus aureus B42876 incubated for 16 to 24 hrs by microplate reader analysis. The format is functional.
For assay [6], the system named is Bacillus subtilis. The assay can be described thus: Antibacterial activity against Bacillus subtilis ATCC BD54 incubated for 16 to 24 hrs by microplate reader analysis. The format is functional.
In assay [7] the test system is Enterococcus faecium. The experiment in a line: Antibacterial activity against Enterococcus faecium incubated for 16 to 24 hrs by microplate reader analysis. It counts as functional.
In assay [8] the test system is Enterococcus faecium. The experiment in a line: Antibacterial activity against vancomycin-resistant Enterococcus faecium incubated for 16 to 24 hrs by microplate reader analysis. It counts as functional.
For assay [9], the system named is Bacillus subtilis. The assay can be described thus: Antibacterial activity against Bacillus subtilis ATCC BD54 incubated for 16 to 18 hrs by microplate reader analysis. It counts as functional.
A short description of assay [10]: Inhibition of Bacillus subtilis DNA polymerase 3.
Assay [11] has as its system Clostridioides difficile. The experiment in a line: Antibacterial activity against Clostridium difficile by CLSI method. The format is functional.
Assay [12] has as its system Enterococcus faecium. The experiment in a line: Antibacterial activity against vancomycin-resistant Enterococcus faecium by CLSI guideline based method. The format is functional.
In assay [13] the test system is Staphylococcus aureus. The experiment in a line: Antibacterial activity against methicillin-resistant Staphylococcus aureus by CLSI guideline based method. The format is functional.
In assay [14] the test system is Streptococcus pyogenes. The experiment in a line: Antibacterial activity against macrolide-resistant Streptococcus pyogenes by CLSI guideline based method. The format is functional.
The subject of assay [15] is Clostridioides difficile. The assay can be described thus: Antibacterial activity against metronidazole-resistant Clostridium difficile by CLSI method. It counts as functional.
The subject of assay [16] is Clostridioides difficile. The assay can be described thus: Antibacterial activity against vancomycin-resistant Clostridium difficile by CLSI method. It counts as functional.
Assay [17] deals with Clostridioides difficile. The assay can be described thus: In vivo inhibition of Clostridium difficile ATCC 43255 infected in golden syrian hamster assessed as reduction in recurrence rate at 50 mg/kg, po bid for 7 days relative to control. The format is functional. As to conditions: 168 h.
Assay [18] can be described thus: Inhibition of Staphylococcus aureus R27 DNA polymerase 3C using activated calf thymus DNA as substrate in presence of dATP/dGTP/dCTP/[3H]dTTP measured for 20 mins.
Assay [19] relates to Streptococcus pneumoniae. The experiment in a line: Antibacterial activity against Streptococcus pneumoniae 1707/4 incubated for 18 hrs under microaerophilic condition by broth microdilution method. The following applies: 1707/4, 18 h. It counts as functional.
The test system of assay [20] is Enterococcus faecalis. The experiment in a line: Antibacterial activity against Enterococcus faecalis ICB 27159 infected in CFW1 mouse assessed as mouse survival at 5 mg/kg, iv administered at 30 mins post infection and measured over 5 days. The format is functional, organism-based.
The test system of assay [21] is Staphylococcus aureus. The assay can be described thus: Antibacterial activity against Staphylococcus aureus 133 infected in CFW1 mouse, iv administered at 30 mins post infection and measured over 5 days. The format is functional. As to conditions: Staphylococcus aureus, 133, iv.
Assay [22] concerns Staphylococcus aureus. The assay can be described thus: Antibacterial activity against Staphylococcus aureus 133 incubated for 18 hrs by broth microdilution method. It counts as functional. As to conditions: Staphylococcus aureus, 133, 18 h.
Assay [23] can be described thus: Inhibition of bacterial DNA polymerase 3C using dATP/dCTP/dTTP/dGTP as substrate in presence of activated calf thymus DNA incubated for 15 mins and measured for 1 min by luciferase based enzymatic assay. Also on record: species or system Bacteria.
In assay [24] the test system is Enterococcus faecalis. The assay can be described thus: Antibacterial activity against Enterococcus faecalis ICB 27159 incubated for 18 hrs under microaerophilic condition by broth microdilution method. It counts as functional. The following applies: ICB 27159, 18 h.
For assay [25], the system named is Streptococcus pneumoniae. The assay can be described thus: Antibacterial activity against Streptococcus pneumoniae MCL5350 incubated for overnight. It counts as functional.
The subject of assay [26] is Bacillus subtilis. The experiment in a line: Antibacterial activity against Bacillus subtilis F2 incubated for overnight. It counts as functional.
For assay [27], the system named is Enterococcus faecium. The experiment in a line: Antibacterial activity against Enterococcus faecium RLA1 incubated for overnight. It counts as functional.
Assay [28] in a line: Inhibition of recombinant Staphylococcus aureus DNA polymerase 3C expressed in Escherichia coli BL21 cells assessed as assessed as reduction in [3H]dTTP incorporation in to activated calf thymus DNA using calf thymus DNA as substrate incubated for 30 mins by scintillation counting analysis.
Assay [29] deals with Staphylococcus aureus. The assay can be described thus: Antibacterial activity against Staphylococcus aureus MB2865 incubated for overnight. It counts as functional.

Take `CCc1cc(Nc2cc(=O)n(CCCCN3CCCCC3)c(=O)[nH]2)ccc1C`: the MIC was 20 µg/mL (≈ 52 µM) in [1]; 20 µg/mL (≈ 52 µM) in assay [3]; above 20 µg/mL in [4]; 40 µg/mL (≈ 104 µM) in [5]; 10 µg/mL (≈ 26 µM) in assay [6]; 20 µg/mL (≈ 52 µM) in [7]. For the same molecule, inhibition of growth in assay [8] (MIC) required 10 µg/mL (≈ 26 µM). In addition, the IC50 in [2] was 28 nM.

In assay [9], `COc1ccc(-c2cc(C(=O)N/N=C/c3cc(OC)c(OC)c(OC)c3)[nH]n2)cc1` had an MIC of 0.625 µg/mL (≈ 1.52 µM). In [2], the IC50 is 200 nM.

In the case of `CCc1cc(Nc2cc(O)nc(O)n2)ccc1C`, the midpoint of inhibition in assay [10], the IC50, lay at 1000 nM.

On to `Cc1ncc([N+](=O)[O-])n1CCO` [METRONIDAZOLE], for which, in assay [11], the MIC50 came to 1 µg/mL (≈ 5.84 µM) and the MIC90 is 4 µg/mL (≈ 23.4 µM).

On to `CCc1cc(Nc2cc(=O)n(CCCCO)c(=O)[nH]2)ccc1C`, for which the MIC was 5 µg/mL (≈ 15.8 µM) in [1]; 5 µg/mL (≈ 15.8 µM) in assay [3]; above 20 µg/mL in assay [4]; 5 µg/mL (≈ 15.8 µM) in assay [5]; below 1.25 µg/mL in [6]; 2.5 µg/mL (≈ 7.88 µM) in [7]. In addition, in assay [8], the MIC is 2.5 µg/mL (≈ 7.88 µM). Further, the IC50 in assay [2] is 63 nM.

As to `Cc1noc(C)c1C(=O)N(C)Cc1csc(NC(=O)NCc2cccc(F)c2)n1`, the MIC90 in assay [12], in assay [13] and in [14] was 1 to 4 µg/mL (≈ 2.4 to 9.58 µM) each time.

For `O=c1[nH]c(NCc2ccc(Cl)c(Cl)c2)nc2ncn(CCN3CCOCC3)c12` [IBEZAPOLSTAT], the MIC50 in assay [15], in [16] and in [11] was 2 µg/mL (≈ 4.72 µM) throughout. The MIC90 in assay [15], in assay [16] and in [11] was 4 µg/mL (≈ 9.45 µM) each time. Further, in assay [17], the inhibition in vivo at 50 mg/kg is 40%.

`COCCS(=O)(=O)Cc1csc(NC(=O)NCc2ccc(Cl)c(Cl)c2)n1`: the MIC in assay [12], in assay [13] and in [14] was 0.5 to 4 µg/mL (≈ 1.14 to 9.12 µM) in each case.

For the molecule `CCc1cc(Nc2cc(Oc3ccc(Br)cc3)nc(N)n2)ccc1C`, the IC50 in [18] was 10000 nM.

Consider `CS(=O)(=O)CCOCc1csc(NC(=O)NCc2ccc(Cl)c(Cl)c2)n1`, for which the MIC90 in assay [12], in assay [13] and in assay [14] was 1 to 8 µg/mL (≈ 2.28 to 18.2 µM) in each case.

Turning to `CCc1cc(Nc2cc(=O)n(CC3CCN(C(=O)c4ccno4)CC3)c(=O)[nH]2)ccc1C`, the MIC in assay [19] came to 8 µg/mL (≈ 18.3 µM); in [22] it was 16 µg/mL (≈ 36.6 µM); in assay [24] it was 8 µg/mL (≈ 18.3 µM). Besides, the outcome in assay [20] was Active. In addition, the ED50 in assay [21] amounted to 10 mg/kg. In addition, the IC50 in assay [23] stood at 100 nM.

As for `CCc1cc(Nc2nc(O)c3c[nH]nc3n2)ccc1C`, the MIC in assay [25], in assay [26], in assay [27] and in assay [29] was at least 9 µg/mL in each case. The IC50 in assay [28] came to 71000 nM.

In [11], `CN[C@H](CC(C)C)C(=O)N[C@H]1C(=O)N[C@@H](CC(N)=O)C(=O)N[C@H]2C(=O)N[C@H]3C(=O)N[C@H](C(=O)N[C@H](C(=O)O)c4cc(O)cc(O)c4-c4cc3ccc4O)[C@H](O)c3ccc(c(Cl)c3)Oc3cc2cc(c3O[C@@H]2O[C@H](CO)[C@@H](O)[C@H](O)[C@H]2O[C@H]2C[C@](C)(N)[C@H](O)[C@H](C)O2)Oc2ccc(cc2Cl)[C@H]1O` [VANCOMYCIN] had an MIC50 of 1 µg/mL (≈ 0.69 µM) and an MIC90 of 4 µg/mL (≈ 2.76 µM).
